Assay results as given in US11980607B2, “Methods of treating malignant lymphoproliferative disorders” (Actuate Therapeutics Inc., priority 2018, dated 2024).

Columns and labels:
KPUMUH1 cell line = assay: Dose response of combinations (MTS viability, day 3); format: cell-based; conditions: KPUMUH1, combined with 0.5 μM 9-ING-41, day 3 MTS
Experimental: (§1) FIGS. 2A-2O show the viability of lymphoma cells with chemotherapy agents in combination with 9-ING-41. 10,000 cells (FIGS. 1A, F, K: Daudi; FIGS. 1B, G, L: SUDHL-4; FIGS. 1C, H, M: KPUM-UH1; FIGS. 1D, I, N: Karpas 422; E, J, O: TMD8) were plated per well of a 96-well plate and treated with a dose response series of both 9-ING-41 (0-0.5 μM) and Venetoclax (0-5,000 nM) (FIGS. 1A-E) or BAY-1143572 (0-50 μM) (FIGS. 1F-J) or Idelalisib (0-50 μM) (FIGS. 1K-O) in triplicate. Viability after 3 days was analyzed using the MTS assay. Briefly, 20 μl of MTS reagent was added to cells and incubated for 2 hours and, the absorbance at 490 nm was read using a Biotek plate reader. Relative absorbance is calculated after setting the average absorbance of the no-treatment control as 1. Absorbance at OD=490 nm increases proportionally to cell density.
(§2) Daudi, SUDHL-4, KPUM-UH1, Karpas 422, or TMD8 cells were treated simultaneously with a series of concentrations of 9-ING-41 (0 μM, 0.05 μM, 0.5 μM) and either Venetoclax (0 nM, 0.5 nM, 5 nM, 50 nM, 500 nM, 5000 nM), BAY-1143572 (0 μM, 0.005 μM, 0.05 μM, 0.5 μM, 5 μM, 50 μM), or Idelalisib (0 μM, 0.005 μM, 0.05 μM, 0.5 μM, 5 μM, 50 μM). Viability at day 3 using an MTS assay was determined as described above. The background absorbance was subtracted from the A490 of the samples and the A490 of the vehicle/no-treatment control was set to 1, and the relative A490s of the rest of the samples were calculated. The IC50 was calculated as the concentration of the drug at which A490 reached 0.5. Additive effects were calculated as a fold change in the IC50 of a novel agent when combined with 0.5 μM of 9-ING-41.

SUDHL-4 cell line = assay: as above; format: cell-based; conditions: SUDHL-4, combined with 0.5 μM 9-ING-41, day 3 MTS
Experimental: as §1, §2

Row | Reduction in the IC50 value on combination with 9-ING-41 (SUDHL-4 cell line) [fold] | SMILES | Reduction in the IC50 value on combination with 9-ING-41 (KPUMUH1 cell line) [fold]
1 | 8 | CC1(C)CCC(CN2CCN(c3ccc(C(=O)NS(=O)(=O)c4ccc(NCC5CCOCC5)c([N+](=O)[O-])c4)c(Oc4cnc5[nH]ccc5c4)c3)CC2)=C(c2ccc(Cl)cc2)C1 [Venetoclax] | 2
2 | 8 | COc1cc(F)ccc1-c1ncnc(Nc2cccc(C[S@](C)(=N)=O)c2)n1 [BAY-1143572] | –
